In publication PMC6199744, “Development of Chemical Proteomics for the Folateome and Analysis of the Kinetoplastid Folateome” (ACS Infectious Diseases, 2018):

Columns and labels:
Type in all cases: binding
[1] = target: T1, HeLa cell extract proteins (Homo sapiens, UniProt P53992); conditions: protein SEC24C; HeLa
T1 construct: endogenous in cells; host or cells: HeLa cell extract
T1 sequence (P53992 1-1094): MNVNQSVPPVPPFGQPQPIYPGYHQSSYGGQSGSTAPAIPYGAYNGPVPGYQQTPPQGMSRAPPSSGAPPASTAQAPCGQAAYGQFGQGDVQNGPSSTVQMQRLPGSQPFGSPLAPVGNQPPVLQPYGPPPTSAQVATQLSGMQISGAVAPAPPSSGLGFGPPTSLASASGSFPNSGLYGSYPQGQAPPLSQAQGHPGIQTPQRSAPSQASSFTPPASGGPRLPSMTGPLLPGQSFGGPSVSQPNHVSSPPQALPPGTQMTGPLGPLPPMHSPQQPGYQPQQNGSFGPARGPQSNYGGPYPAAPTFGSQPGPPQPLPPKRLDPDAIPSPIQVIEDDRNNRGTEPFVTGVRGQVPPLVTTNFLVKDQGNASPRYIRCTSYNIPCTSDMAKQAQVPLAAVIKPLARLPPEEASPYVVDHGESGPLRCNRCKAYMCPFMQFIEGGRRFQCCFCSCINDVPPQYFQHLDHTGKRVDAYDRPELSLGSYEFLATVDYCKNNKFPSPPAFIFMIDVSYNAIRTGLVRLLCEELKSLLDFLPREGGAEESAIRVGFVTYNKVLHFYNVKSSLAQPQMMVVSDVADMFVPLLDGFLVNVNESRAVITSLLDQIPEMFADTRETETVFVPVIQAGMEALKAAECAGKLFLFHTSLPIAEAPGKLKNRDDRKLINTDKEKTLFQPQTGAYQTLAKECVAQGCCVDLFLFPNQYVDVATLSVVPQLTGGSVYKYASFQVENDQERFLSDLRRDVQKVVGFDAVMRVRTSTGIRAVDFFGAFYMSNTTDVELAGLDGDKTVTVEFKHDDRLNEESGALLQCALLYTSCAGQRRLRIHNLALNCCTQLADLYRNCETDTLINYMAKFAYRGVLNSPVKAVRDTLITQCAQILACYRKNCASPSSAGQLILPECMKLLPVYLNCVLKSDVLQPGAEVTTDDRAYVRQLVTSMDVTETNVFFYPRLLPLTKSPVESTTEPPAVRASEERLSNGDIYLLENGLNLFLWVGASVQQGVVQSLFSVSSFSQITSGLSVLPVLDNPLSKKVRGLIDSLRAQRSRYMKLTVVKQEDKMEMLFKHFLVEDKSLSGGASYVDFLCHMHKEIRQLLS

[2] = target: T2, HeLa cell extract proteins (Homo sapiens, UniProt P20073); conditions: protein ANXA7; HeLa
T2 construct: endogenous in cells; host or cells: HeLa cell extract
T2 sequence (P20073 1-488): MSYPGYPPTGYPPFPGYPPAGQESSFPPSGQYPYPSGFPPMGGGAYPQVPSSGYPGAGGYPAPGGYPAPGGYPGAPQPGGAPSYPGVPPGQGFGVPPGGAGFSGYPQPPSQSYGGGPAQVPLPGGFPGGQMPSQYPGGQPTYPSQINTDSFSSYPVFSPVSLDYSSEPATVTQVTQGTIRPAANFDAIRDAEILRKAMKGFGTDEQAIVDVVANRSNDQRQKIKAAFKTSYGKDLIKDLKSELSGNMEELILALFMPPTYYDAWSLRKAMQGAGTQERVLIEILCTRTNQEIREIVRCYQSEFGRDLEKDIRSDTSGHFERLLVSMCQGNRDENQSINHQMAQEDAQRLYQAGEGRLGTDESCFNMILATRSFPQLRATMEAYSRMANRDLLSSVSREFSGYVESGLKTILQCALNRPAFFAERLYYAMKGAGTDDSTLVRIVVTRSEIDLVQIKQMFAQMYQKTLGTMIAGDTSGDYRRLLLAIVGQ

[3] = target: T3, HeLa cell extract proteins (Homo sapiens, UniProt P62191); conditions: protein PSMC1; HeLa
T3 construct: endogenous in cells; host or cells: HeLa cell extract

[4] = target: T4, HeLa cell extract proteins (Homo sapiens, UniProt P60228); conditions: protein EIF3E; HeLa
T4 construct: endogenous in cells; host or cells: HeLa cell extract

[5] = target: T5, HeLa cell extract proteins (Homo sapiens, UniProt Q9NU22); conditions: captured protein MDN1; HeLa
T5 construct: endogenous in cells; host or cells: HeLa cell extract

[6] = target: T6, HeLa cell extract proteins (Homo sapiens, UniProt O75340); conditions: HeLa; protein PDCD6
T6 construct: endogenous in cells; host or cells: HeLa cell extract

[7] = target: T7, HeLa cell extract proteins (Homo sapiens, UniProt Q16531); conditions: HeLa; protein DDB1
T7 construct: endogenous in cells; host or cells: HeLa cell extract

[8] = target: T8, HeLa cell extract proteins (Homo sapiens, UniProt P25705); conditions: HeLa; protein ATP5A1
T8 construct: endogenous in cells; host or cells: HeLa cell extract

[9] = target: T9, HeLa cell extract proteins (Homo sapiens, UniProt P27707); conditions: protein DCK; HeLa
T9 construct: endogenous in cells; host or cells: HeLa cell extract

[10] = target: T10, HeLa cell extract proteins (Homo sapiens, UniProt P30153); conditions: HeLa; protein PPP2R1A
T10 construct: endogenous in cells; host or cells: HeLa cell extract

[11] = target: T11, HeLa cell extract proteins (Homo sapiens, UniProt Q8IYS1); conditions: captured protein PM20D2; HeLa
T11 construct: endogenous in cells; host or cells: HeLa cell extract
T11 sequence (Q8IYS1 1-436): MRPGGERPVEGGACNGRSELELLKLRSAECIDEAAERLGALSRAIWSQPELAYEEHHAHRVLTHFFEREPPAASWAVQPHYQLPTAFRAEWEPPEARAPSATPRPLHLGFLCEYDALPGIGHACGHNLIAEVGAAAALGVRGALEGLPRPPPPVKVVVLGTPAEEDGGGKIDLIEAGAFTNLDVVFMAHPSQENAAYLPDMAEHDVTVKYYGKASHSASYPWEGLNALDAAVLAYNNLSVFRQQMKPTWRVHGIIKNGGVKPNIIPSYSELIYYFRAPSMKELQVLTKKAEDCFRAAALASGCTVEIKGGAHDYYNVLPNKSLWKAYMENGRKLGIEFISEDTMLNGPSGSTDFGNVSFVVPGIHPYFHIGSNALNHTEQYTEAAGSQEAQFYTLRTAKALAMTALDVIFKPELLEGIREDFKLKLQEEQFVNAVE

[12] = target: T12, HeLa cell extract proteins (Homo sapiens, UniProt P35579); conditions: captured protein MYH9; HeLa
T12 construct: endogenous in cells; host or cells: HeLa cell extract

[13] = target: T13, HeLa cell extract proteins (Homo sapiens, UniProt P06576); conditions: protein ATP5B; HeLa
T13 construct: endogenous in cells; host or cells: HeLa cell extract
T13 sequence (P06576 48-529): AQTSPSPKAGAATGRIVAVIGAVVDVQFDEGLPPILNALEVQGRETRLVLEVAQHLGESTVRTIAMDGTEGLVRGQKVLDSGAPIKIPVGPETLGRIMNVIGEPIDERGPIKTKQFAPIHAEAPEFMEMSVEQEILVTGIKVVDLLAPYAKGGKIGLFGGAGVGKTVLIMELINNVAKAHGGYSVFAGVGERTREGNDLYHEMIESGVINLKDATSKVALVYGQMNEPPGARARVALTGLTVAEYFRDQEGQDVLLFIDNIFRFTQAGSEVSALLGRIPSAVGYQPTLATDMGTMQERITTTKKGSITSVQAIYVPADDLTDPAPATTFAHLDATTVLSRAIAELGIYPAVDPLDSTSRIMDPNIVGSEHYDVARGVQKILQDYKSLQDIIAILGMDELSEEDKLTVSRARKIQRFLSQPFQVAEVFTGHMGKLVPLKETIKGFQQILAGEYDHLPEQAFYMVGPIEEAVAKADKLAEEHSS

T8 sequence (P25705 44-553): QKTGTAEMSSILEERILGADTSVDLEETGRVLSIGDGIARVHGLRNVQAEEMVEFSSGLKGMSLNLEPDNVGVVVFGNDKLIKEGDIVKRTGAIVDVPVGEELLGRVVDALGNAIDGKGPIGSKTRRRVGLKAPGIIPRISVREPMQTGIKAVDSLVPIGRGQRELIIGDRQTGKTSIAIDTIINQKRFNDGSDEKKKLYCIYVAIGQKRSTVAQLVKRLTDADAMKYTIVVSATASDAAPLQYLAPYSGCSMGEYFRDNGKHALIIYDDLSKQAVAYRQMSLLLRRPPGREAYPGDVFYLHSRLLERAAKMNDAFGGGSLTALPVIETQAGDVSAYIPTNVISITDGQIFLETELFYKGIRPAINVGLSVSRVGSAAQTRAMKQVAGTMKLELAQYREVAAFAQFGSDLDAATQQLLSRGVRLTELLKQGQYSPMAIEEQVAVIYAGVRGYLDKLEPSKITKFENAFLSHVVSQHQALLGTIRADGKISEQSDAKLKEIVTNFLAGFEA
T6 sequence (O75340 whole entry): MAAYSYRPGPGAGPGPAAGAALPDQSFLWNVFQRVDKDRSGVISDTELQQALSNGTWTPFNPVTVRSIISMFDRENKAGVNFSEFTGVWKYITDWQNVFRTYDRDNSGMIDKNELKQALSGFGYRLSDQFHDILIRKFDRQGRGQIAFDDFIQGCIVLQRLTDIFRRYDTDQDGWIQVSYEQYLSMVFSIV
T7 sequence (Q16531 whole entry): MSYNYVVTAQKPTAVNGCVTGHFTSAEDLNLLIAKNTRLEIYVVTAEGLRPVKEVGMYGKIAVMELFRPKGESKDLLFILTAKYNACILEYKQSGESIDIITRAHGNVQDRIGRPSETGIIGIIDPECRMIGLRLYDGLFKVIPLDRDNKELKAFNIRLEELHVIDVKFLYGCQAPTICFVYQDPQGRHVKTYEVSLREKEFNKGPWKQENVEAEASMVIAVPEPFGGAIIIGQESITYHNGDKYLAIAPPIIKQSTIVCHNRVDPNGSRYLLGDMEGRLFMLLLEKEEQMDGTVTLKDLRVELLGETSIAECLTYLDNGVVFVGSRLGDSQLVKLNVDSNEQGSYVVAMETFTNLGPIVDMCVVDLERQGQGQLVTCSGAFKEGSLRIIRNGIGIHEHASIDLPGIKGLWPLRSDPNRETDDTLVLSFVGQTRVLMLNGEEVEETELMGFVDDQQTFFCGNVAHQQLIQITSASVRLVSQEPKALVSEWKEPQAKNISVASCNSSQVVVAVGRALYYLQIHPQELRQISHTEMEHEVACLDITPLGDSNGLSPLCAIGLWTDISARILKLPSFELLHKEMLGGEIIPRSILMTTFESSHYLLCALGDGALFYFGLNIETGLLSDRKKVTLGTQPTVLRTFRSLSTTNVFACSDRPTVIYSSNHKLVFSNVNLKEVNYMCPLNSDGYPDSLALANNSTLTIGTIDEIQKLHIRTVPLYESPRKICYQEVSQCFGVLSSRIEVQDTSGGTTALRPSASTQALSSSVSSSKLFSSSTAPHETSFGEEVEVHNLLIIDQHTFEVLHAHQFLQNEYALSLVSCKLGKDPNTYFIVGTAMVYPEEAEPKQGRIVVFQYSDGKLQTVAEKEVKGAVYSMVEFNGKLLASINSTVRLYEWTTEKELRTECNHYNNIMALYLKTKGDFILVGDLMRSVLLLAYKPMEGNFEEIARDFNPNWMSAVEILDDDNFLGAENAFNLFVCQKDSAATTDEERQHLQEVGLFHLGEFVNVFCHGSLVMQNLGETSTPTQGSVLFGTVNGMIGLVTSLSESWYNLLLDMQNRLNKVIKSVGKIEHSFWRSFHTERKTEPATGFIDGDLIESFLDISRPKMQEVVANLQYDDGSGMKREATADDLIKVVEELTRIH
T9 sequence (P27707 whole entry): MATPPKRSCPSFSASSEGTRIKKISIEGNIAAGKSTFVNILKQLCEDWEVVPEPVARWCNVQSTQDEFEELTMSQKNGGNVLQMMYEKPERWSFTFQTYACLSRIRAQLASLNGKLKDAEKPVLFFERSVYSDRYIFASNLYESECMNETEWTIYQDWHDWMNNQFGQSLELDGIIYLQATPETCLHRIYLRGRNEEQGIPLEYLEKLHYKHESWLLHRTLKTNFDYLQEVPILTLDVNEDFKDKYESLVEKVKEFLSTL
T4 sequence (P60228 whole entry): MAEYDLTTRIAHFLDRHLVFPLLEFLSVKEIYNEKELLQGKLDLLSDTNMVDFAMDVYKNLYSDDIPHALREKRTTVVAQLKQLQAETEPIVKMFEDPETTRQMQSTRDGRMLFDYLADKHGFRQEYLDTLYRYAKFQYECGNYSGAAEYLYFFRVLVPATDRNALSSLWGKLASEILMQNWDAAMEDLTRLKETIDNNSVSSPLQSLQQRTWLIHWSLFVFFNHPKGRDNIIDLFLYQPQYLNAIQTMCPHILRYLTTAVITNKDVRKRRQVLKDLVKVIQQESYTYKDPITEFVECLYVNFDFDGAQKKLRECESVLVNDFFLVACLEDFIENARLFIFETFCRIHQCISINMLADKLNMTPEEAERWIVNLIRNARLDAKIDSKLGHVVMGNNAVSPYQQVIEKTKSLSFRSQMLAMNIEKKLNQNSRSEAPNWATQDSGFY
T10 sequence (P30153 whole entry): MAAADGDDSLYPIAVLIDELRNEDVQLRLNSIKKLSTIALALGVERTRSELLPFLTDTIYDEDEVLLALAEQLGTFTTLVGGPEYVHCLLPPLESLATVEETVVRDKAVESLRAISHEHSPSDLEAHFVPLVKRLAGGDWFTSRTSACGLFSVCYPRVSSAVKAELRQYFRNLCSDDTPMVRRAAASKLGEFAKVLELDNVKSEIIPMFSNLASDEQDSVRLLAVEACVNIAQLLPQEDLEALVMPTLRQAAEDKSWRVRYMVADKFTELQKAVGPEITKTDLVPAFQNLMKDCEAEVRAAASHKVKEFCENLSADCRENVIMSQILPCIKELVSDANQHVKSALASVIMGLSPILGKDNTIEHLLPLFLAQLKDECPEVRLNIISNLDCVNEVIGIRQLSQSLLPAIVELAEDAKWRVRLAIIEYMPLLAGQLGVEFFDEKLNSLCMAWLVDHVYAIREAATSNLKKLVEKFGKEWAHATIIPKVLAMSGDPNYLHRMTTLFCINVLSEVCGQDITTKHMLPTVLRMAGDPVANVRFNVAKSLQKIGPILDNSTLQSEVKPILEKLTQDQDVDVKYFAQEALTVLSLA
T3 sequence (P62191 whole entry): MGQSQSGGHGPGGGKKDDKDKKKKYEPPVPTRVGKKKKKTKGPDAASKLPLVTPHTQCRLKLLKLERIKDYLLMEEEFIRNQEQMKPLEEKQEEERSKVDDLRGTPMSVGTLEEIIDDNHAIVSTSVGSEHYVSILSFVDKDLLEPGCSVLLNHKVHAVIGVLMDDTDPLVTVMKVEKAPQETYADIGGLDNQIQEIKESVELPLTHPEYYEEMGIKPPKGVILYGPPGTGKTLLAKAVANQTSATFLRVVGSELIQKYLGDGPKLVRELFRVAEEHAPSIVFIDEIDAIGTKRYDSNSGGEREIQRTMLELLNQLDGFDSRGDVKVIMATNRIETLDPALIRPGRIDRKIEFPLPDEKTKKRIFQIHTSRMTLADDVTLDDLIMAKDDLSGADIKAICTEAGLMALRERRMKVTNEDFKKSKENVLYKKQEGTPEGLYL

SMILES: CCCCCCOc1cccc(Cc2cnc(N)nc2N)c1 [compound 2]
- fold changes relative to vehicle control [1]: 1.01
- fold changes relative to vehicle control [2]: 1.58
- fold changes relative to vehicle control [3]: 1.42
- fold changes relative to vehicle control [4]: 1.21
- fold changes relative to vehicle control [5]: 0.87
- fold changes relative to vehicle control [6]: 0.92
- fold changes relative to vehicle control [7]: 1.05
- fold changes relative to vehicle control [8]: 0.97
- fold changes relative to vehicle control [9]: 0.9
- fold changes relative to vehicle control [10]: 0.95
- fold changes relative to vehicle control [11]: 0.9
- fold changes relative to vehicle control [12]: 1.23
- fold changes relative to vehicle control [13]: 0.83
